# Test results: patent publication US20260256712A1, “COMPOUNDS FOR INHIBITING GRAM-POSITIVE BACTERIA” (priority 2022, published 2026)
# Entries after “also recorded” stand apart in the source; their conditions may differ.
# Legend:
# [1] = system: ternary complex between Cy5-EF-Tu:GTP and Cy3-Phe-tRNAPhe; test: EF-Tu:tRNA FRET assay (qHTS and secondary FRET assay); assay type: biochemical, E. coli; details: online and offline LOPAC testing
# From the text: Upon formation of functional ternary complex between Cy5-EF-Tu:GTP and Cy3-Phe-tRNAPhe, fluorescence energy transfer (FRET) occurs between Cy3 and Cy5 fluorophores located within Förster radius (~17 Å) when Cy3 is excited at 532 nm, and as a result the complex emits light at 665 nm. Presence of inhibitors of the ternary complex prevents complex from forming, thereby reducing fluorescence intensity at 665 nm.
# Inhibitors of EF-Tu:tRNA translation were identified using this in vitro FRET system. Quantitative high throughput screening (qHTS) was performed on the LOPAC library containing 1,280 chemicals to identify potential leads for antibiotic development. […]
# Equipment: EnVision 2104 Multilabel Plate Reader (PerkinElmer) with excitation optical filter 2100-5050 Bodipy TMR FR 531 nm and emission optical filter 2100-5770 Cy5 685 nm. […]
# All solutions were prepared fresh in assay buffer consisting of 70 mM HEPES-KOH (pH7.6), 52 mM ammonium acetate, 8 mM magnesium chloride, 30 mM potassium chloride, and 2.6% glycerol. […] FRET was then detected using 1) a ViewLux high-throughput microplate imager (PerkinElmer) equipped with Ex: 525/20 and Em: 671/8 filters; or 2) an Envision Multimode plate reader (PerkinElmer) equipped with Ex: 530/25 and Em: 665 filters. Assay performance, as calculated by Z′ factor as described by Zhang et al (J Biomol Screen, 1999), was favorable for the Envision plate reader. […]
# [2] = system: Cy3/Cy5-labelled oligonucleotides; test: Counterscreen assay excluding quenching (Cy3/Cy5 oligonucleotide FRET); details: 50 nM of each oligonucleotide
# Protocol: Oligonucleotides were purchased from Integrated DNA Technologies:
# In the assay, a 50 nM final concentration of each oligonucleotide was used.
# Incubation buffer: 70 mM HEPES-KOH (pH 7.6), 52 mM ammonium acetate, 8 mM magnesium chloride, 30 mM potassium chloride and 2.6% glycerol. A 96-well black, clear bottom microplate was used and read the plate was read using EnVision multilabel plate reader (PerkinElmer) having the same optical filters and parameters as described in Example 2.
# [3] = system: B. subtilis 1S-75; test: Zone inhibition assay (ZIA), B. subtilis; assay type: cell-based, Bacillus subtilis
# [4] = system: B. subtilis IS-75; test: Bacterial growth / viable count assay, B. subtilis; assay type: cell-based, Bacillus subtilis
# Protocol: (§1) The culture was diluted again 1/500 in 1 ml of fresh media with presence of increasing concentrations of tested compound or 1% DMSO as a control.
# [5] = system: Pseudomonas aeruginosa; test: Bacterial growth assay, Pseudomonas aeruginosa; assay type: cell-based
# Protocol: as §1
# [6] = system: E. coli strains; test: Bacterial growth assay, E. coli; assay type: cell-based, Escherichia coli
# Protocol: as §1
# [7] = system: Staphylococcus aureus strains including MRSA; test: Drug susceptibility assay (MIC), Staphylococcus aureus; assay type: cell-based; details: including the MRSA strain
# Protocol: Drug susceptibility assays. Experiments to determine the minimum inhibitory concentration (MIC) of RR-THC for bacterial growth were performed in 96-well microtiter plates. A DMSO stock solution of each compound was added to the first column and serially diluted across the columns of the plate. The last column of the plate contained no drug and served as a no-drug control. Overnight cultures of the bacterium being tested (MRSA ATCC 43300, […], or the aforementioned VRSA/VISA strains) were diluted 1000-fold, and 100 μL of the diluted culture (appr. 2×10^3 cells) was used as an inoculum in each well. MICs were determined by visual inspection looking for a pellet after 18 h incubation at 37° C. and centrifugation.
# [8] = system: Gram-negative bacteria; test: Drug susceptibility assay (MIC), Gram-negative bacteria; assay type: cell-based
# [9] = system: mycobacteria; test: Drug susceptibility assay (MIC), mycobacteria; assay type: cell-based
# [10] = Cytotoxicity assay (CellTiter 96 AQueous One Solution); assay type: cell-based; details: African green monkey, Vero cells, read-out: Cytotoxicity CC 50
# Protocol: Cytotoxicity assay. Compounds were tested for cytotoxicity against mammalian Vero cells using the CellTiter 96 AQueous One Solution Assay kit (Promega). Vero cells were seeded in 96-well plates at a density of 2×10^4 cells per well, and the plates were incubated for 4 h at 37° C. to allow attachments of the Vero cells. Chemical compounds being tested were then added to the wells starting from a final concentration of 50 μg/mL and making 12 1:2 dilutions. Cells were incubated for 72 h at 37° C., after which 20 μL of freshly prepared MTS:PMS reagents was added to each well. The plates were incubated for 2 h and then read at an absorbance of 490 nm.
# [11] = Intraperitoneal administration in mice; assay type: in vivo; details: 10 mg/ml
# [12] = system: USA300 methicillin-resistant Staphylococcus aureus (MRSA); assay type: in vivo, C57Bl/6J mice; details: for bacterial counts (punch biopsies) / dermonecrosis: topical ointment daily, 0.2 mg drug; for dermonecrosis: first experiment
# [13] = system: E. coli DH5α; test: Zone inhibition assay (ZIA), E. coli
Structure (SMILES),effect on Cy5-EF-Tu acceptor fluorescence emission in the FRET assay [1],change of FRET in quenching counterscreen [2],"zone inhibition result in words, gram-positive bacteria (B. subtilis) [3]",colony formation of B. subtilis on agar plate ([4]; 10 μM added to the medium in an agar plate),"inhibition at 5 µM ([4]; Bacillus subtilis, IS75, 5 μM, cells grown in test tubes) [%]","inhibition of bacterial growth, Pseudomonas aeruginosa [5]","inhibition of bacterial growth, E. coli strains [6]","sensitivity in MIC assay, three Staphylococcus aureus strains [7]","sensitivity in MIC assay, Gram-negative bacteria [8]","sensitivity in MIC assay, mycobacteria [9]",CC50 at 72 h [10] [µM],toxicity upon intraperitoneal administration [11],"dermonecrosis, repetition of the experiment ([12]; compared to controls but not compared to the mupirocin treated group)",bacterial counts (punch biopsies) [12],dermonecrosis [12],"zone inhibition result in words, E. coli [13]"
"CC[C@@H]1Cc2cc(O)ccc2C2=C1c1ccc(O)cc1C[C@H]2CC [RR-THC, (R,R)-tetrahydrochrysene]",significantly diminished; also recorded: effectively decreased Cy5-EF-Tu acceptor fluorescence emission; also recorded: highly active in both methods,did not significantly change FRET,clear zone indicative of inhibition of cell growth,colonies did not form,~97,No inhibition,No inhibition,highly sensitive,not sensitive,not sensitive,> 50,a level of toxicity observed,statistically significant decrease in dermonecrosis,no difference apparent,inhibiting dermonecrosis; also recorded: trend to reduced dermonecrosis,did not inhibit
"C/C(=C\C(=O)OCCCCCCCCC(=O)O)C[C@@H]1OC[C@H](C[C@@H]2O[C@H]2[C@@H](C)[C@H](C)O)[C@@H](O)[C@H]1O [mupirocin, reference compound]",–,–,–,–,–,–,–,–,–,–,–,–,–,trend to reduction,no decrease,–
